This is an account of results in patent US6410790B1, “3-amin3-arylpropan-1-ol compounds, their preparation and use” (priority 1999, dated 2002).

The test system of assay [1] is binding site 2 of the sodium channel. The experiment in a line: BTX binding, sodium channel. As to conditions: 10 μM, percentage inhibition, [3H]-batrachotoxin A20 α-benzoate 10 nM, rat cerebral cortex synaptosomes. As to the method:
Binding Investigations in the Sodium Channel
Binding Site 2 (BTX Binding)
The binding site 2 of the sodium channel is the so-called batrachotoxin (BTX) binding site. [^3H]-batrachlotoxin A20 α-benzoate (10 nM in the assay) was used as ligand. These ion channel particles (synaptosomes) were concentrated from rat cerebral cortex according to the procedure of Gray and Whittaker (E. G. Gray and V. P. Whittaker (1962) J. Anat. 76, 79-88). The radioactivity that is measured in the presence of veratridine (0.3 mM in the assay) is defined as non-specific binding. The material was incubated at 37° C. for 120 minutes. The assay conditions are carried out according to the protocol published by Pauwels, Leysen and Laduron (P. J. Pauwels, J. E. Leysen and P. M. Laduron (1986) Eur. J. Pharmacol. 124, 291-298).
(N=3, i.e. mean values±SEM from 3 independent series of experiments that were carried out in the form of triple parallel experiments).
(§1) For this purpose IC50 values are obtained, which can be converted to inhibitor constants (Ki) according to the “Cheng-Prusoff equation” (Y. C. Clieng and W. H. Prusoff (1973) Biochem. Pharmacol. 22, 3099-3108). The IC50 values were obtained by means of the computer program “Figure P” (version 6.0, Biosoft, Cambridge, England). Km values were calculated according to Lineweaver and Burk (H. Lineweaver and D. Burk (1934) J. Am. Chem. Soc. 56, 658-666). The “Ligand” computer program (version 4, Biosoft, England) was used to obtain Ken values.

The test system of assay [2] is phenylquinone-induced writhing reaction. The experiment in a line: phenylquinone-induced writhing test in mice. It is filed as in vivo. As to conditions: male NMRI mice, phenylquinone i.p. 10 minutes later; for inhibition in vivo at 10 mg/kg: Mus musculus, iv, 10 min, 10 mg/kg intravenously. As for the experimental part:
Analgesic Effect in the Writhing Test in Mice
The analgesic effect was investigated in the phenylquinone-induced writhing test in mice (as modified by I. C. Hendershot and J. Forsaith (1959) J. Pharmacol. Exp. Ther. 125, 237-240). Male NMRI mice weighing 25 to 30 g were used for the test. Groups of 10 animals each received by intraperitoineal application, for each substance dose, 0.3 ml/mouse of a 0.02% aqueous solution of phenylquinone (phenylbenzoquinone, Sigma Company, Deisenhofen; solution prepared with addition of 5% of ethanol and kept in a water bath at 45° C.) 10 minutes after intravenous administration of the test substances. The animals were placed individually in observation cages. The number of pain-induced stretching movements (so-called writhing reactions=straightening of the body together with stretching of the rear extremities) was measured by means of a push-button counter 5 to 20 minutes after administration of the phenylquinone. Animals that had received only physiological saline solution served as controls. All substances were tested in the standard dose of 10 mg/kg. The percentage inhibition (% inhibition) of the writhing reaction produced by a substance was calculated according to the following formula: [formula]
In general terms: Writhing tests count abdominal constrictions after an irritant is injected.

The target in the next assay is T1, NA transporter (Rattus norvegicus, UniProt Q63380).
T1 construct: synaptosomes are isolated fresh from rat brains; from tissue; host or cells: rat hypothalamus synaptosomes (P2 fraction)
The experiment in a line: synaptosomal noradrenaline uptake inhibition (NA uptake inhibition). It is filed as biochemical. As to conditions: for inhibition at 1 µM: read-out: NA Uptake Inhibition at 1 μM, 1 μM in the assay, synaptosomes from rat hypothalamus; for NA Uptake Inhibition at 1 μM: 1 μM in the assay, synaptosomes from rat hypothalamus. As to the method:
In order to carry out these in vitro studies, synaptosomes are isolated fresh from rat brains. In each case a so-called “P2” fraction is used, which is prepared according to the protocol of Gray and Whittaker (E. G. Gray and V. P. Whittaker (1962) J. Anat. 76, 79-88).
(in each case N=4, i.e. mean values±SEM from 4 independent series of experiments that were carried out in the form of triple parallel experiments).
as §1

The test system of assay [3] is benzothiazepine binding site of the L-type calcium channel. The experiment in a line: Diltiazem binding, L calcium channel. Also on record: species or system rat. As to conditions: 10 μM, percentage inhibition, [3H]-cis-(+)-diltiazem 5 nM, rat cerebral cortex membranes. As for the experimental part: Binding Investigations in the L Calcium Channel
Benzothiazepine Binding Site (Diltiazem Binding)
The biological membrane material was isolated from the rat cerebral cortex. [^3H]-cis-(+)-diltiazem (5 nM in the assay) was used as ligand. The material was incubated for 20 minutes at 25° C. The radioactivity that is measured in the presence of (±)-diltiazem (10^−6 M in the assay) is defined as non-specific binding. After completion of incubation the non-bound fraction of the radioactive ligand is separated by means of a filtration process using Whatman Glasfiber GF/B membranes. The membranes are washed and the radioactivity is then measured using a β-counter. The method is based on the details published by Schoemaker and Langer (H. Schoemaker and S. Z. Langer (1985) Eur. J. Pharmacol. 111, 273-277).
as §1

T1 sequence (Q63380 1-617): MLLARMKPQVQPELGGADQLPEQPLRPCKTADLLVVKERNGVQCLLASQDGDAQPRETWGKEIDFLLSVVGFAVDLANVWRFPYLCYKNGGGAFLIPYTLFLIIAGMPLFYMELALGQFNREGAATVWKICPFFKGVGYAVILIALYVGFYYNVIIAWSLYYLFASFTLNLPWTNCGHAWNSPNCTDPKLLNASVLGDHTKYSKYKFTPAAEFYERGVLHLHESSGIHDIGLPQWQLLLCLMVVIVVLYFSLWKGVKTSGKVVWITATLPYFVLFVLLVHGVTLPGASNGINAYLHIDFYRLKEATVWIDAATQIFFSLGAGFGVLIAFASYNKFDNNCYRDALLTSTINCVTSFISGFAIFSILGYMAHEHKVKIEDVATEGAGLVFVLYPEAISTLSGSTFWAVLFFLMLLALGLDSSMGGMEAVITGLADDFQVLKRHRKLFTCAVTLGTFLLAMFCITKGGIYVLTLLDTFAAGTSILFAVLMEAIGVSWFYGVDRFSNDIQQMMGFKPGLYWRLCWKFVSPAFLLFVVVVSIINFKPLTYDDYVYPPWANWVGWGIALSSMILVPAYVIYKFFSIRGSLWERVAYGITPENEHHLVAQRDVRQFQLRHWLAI

Regarding `CN(C)C(c1ccccc1)C1CCCCC1(O)Cc1c(F)cccc1Cl.Cl` (stereo not shown) [Example 56, 1-(2-chloro-6-fluorobenzyl)-2-(dimethylaminophenylmethyl)cyclohexanol, hydrochloride], the “BTX Binding at 10 μM” value in assay [1] is on record as 99%. In addition, testing at 10 mg/kg in assay [2] gave an inhibition in vivo of 94%. For the same compound, the inhibition (commonly the drop in the measured response relative to a control, in per cent) at 1 µM at NA transporter came out at 92%. For the same compound, in assay [3], the “Diltiazem Binding at 10 μM” value worked out at 88%.
As to `CN(C)C(c1ccccc1)C1CCCCC1(O)Cc1cccc(F)c1F.Cl` (stereo not shown) [Example 57, 1-(2,3-difluorobenzyl)-2-(dimethylaminophenylmethyl)cyclohexanol, hydrochloride], in assay [1], the “BTX Binding at 10 μM” value is listed as 97%. In addition, at 10 mg/kg the inhibition in vivo in assay [2] was 84%. In addition, the inhibition at 1 µM on NA transporter came to 99%. In addition, in assay [3], the “Diltiazem Binding at 10 μM” value worked out at 83%.
For `CN(C)C(c1ccc(Cl)cc1)C1CCCCC1(O)Cc1ccccc1.Cl` (stereo not shown) [Example 58, 1-benzyl-2-[(4-chlorophenyl)dimethylaminomethyl]cyclohexanol, hydrochloride] the same measures were 100%, 98%, 0% and 80%.
For `CCC(O)(CCc1ccccc1)C(C)C(c1ccccc1)N(C)C.Cl` (stereo not shown) [Example 59, 1-dimethylamino-3-ethyl-2-methyl-1,5-diphenylpentan-3-ol, hydrochloride] the same measures were 86%, 59%, 26% and 64%.
Consider `CN(C)C(c1ccccc1Cl)C1CCCCC1(O)Cc1ccccc1Cl.Cl` (stereo not shown) [Example 60, 1-(2-chlorobenzyl)-2-[(2-chlorophenyl)dimethylaminomethyl]cyclohexanol, hydrochloride], for which, in assay [1], the “BTX Binding at 10 μM” value is on record as 95%. For the same compound, the inhibition in vivo (as a rule, the percentage by which the read-out fell short of the control) at 10 mg/kg in assay [2] is 63%. At NA transporter, the inhibition at 1 µM came to 56%. For the same compound, in assay [3], the “Diltiazem Binding at 10 μM” value stood at 79%.
For `CN(C)C(c1ccc(Br)cc1)C1CCCCC1(O)Cc1ccccc1.Cl` (stereo not shown) [Example 61, 1-benzyl-2-[(4-bromophenyl)dimethylaminomethyl]cyclohexanol, hydrochloride] the same measures were 98%, 90%, 100% and 89%.
For `CN(C)C(c1ccc(Cl)cc1)C1CCCCC1(O)c1ccc(C(F)(F)F)cc1.Cl` (stereo not shown) [Example 62, 2-[(4-chlorophenyl)dimethylaminomethyl]-1-(4-trifluoromethylphenyl)cyclohexanol, hydrochloride] the same measures were 93%, 94%, 80% and 83%.
For `CN(C)C(c1ccc(Cl)cc1)C1CCCCC1(O)Cc1cccc(C(F)(F)F)c1.Cl` (stereo not shown) [Example 63, 2-[(4-chlorophenyl)dimethylaminomethyl]-1-(3-trifluoromethylbenzyl)cyclohexanol, hydrochloride] the same measures were 99%, 86%, 94% and 95%.
In the case of `CN(C)C(c1cccc(Oc2ccccc2)c1)C1CCCCC1(O)Cc1ccc(C(C)(C)C)cc1.Cl` (stereo not shown) [Example 64, 1-(4-tert.-butylbenzyl)-2-[dimethylamino-(3-phenoxyphenyl)methyl]cyclohexanol, hydrochloride], in assay [1], the “BTX Binding at 10 μM” value is 100%. The inhibition in vivo at 10 mg/kg in assay [2] came out at 88%. Also, the inhibition at 1 µM at NA transporter was 36%. For the same compound, the “Diltiazem Binding at 10 μM” value in assay [3] was 87%.
For `CN(C)C(c1ccc(C#N)cc1)C1CCCCC1(O)c1ccc(C(F)(F)F)cc1.Cl` (stereo not shown) [Example 65, 4-{dimethylamino-[2-hydroxy-2-(4-trifluoromethylphenyl)cyclohexyl]methyl}benzonitrile, hydrochloride] the same measures were 78%, 76%, 0% and 72%.
Consider `Cc1ccccc1C(C1CCCCC1(O)c1ccccc1)N(C)C.Cl` (stereo not shown) [Example 66, 2-(dimethylamino-o-tolylmethyl)-1-phenylcyclohexanol, hydrochloride], for which, in assay [1] (hydrochloride), the “BTX Binding at 10 μM” value is 89%. Besides, the inhibition in vivo at 10 mg/kg in assay [2] was determined as 91%. The “NA Uptake Inhibition at 1 μM” value on NA transporter (hydrochloride) is listed as 15%. Further, the “Diltiazem Binding at 10 μM” value in assay [3] (hydrochloride) is reported as 65%.
`Cc1ccccc1C(C1CCCCC1(O)Cc1ccccc1)N(C)C.Cl` (stereo not shown) [Example 67, 1-benzyl-2-(dimethylamino-o-tolylmethyl)cyclohexanol, hydrochloride]: the “BTX Binding at 10 μM” value in assay [1] is 97%. For the same compound, in assay [2], at 10 mg/kg the inhibition in vivo was 84%. Moreover, the inhibition at 1 µM on NA transporter was 83%. In assay [3], the “Diltiazem Binding at 10 μM” value is 98%.
Consider `CN(C)C(c1ccccc1)C1CCCCC1(O)CCCc1ccccc1.Cl` (stereo not shown) [Example 68, 2-(dimethylaminophenylmethyl)-1-(3-phenylpropyl)cyclohexanol, hydrochloride], for which the “BTX Binding at 10 μM” value in assay [1] was 98%. The compound also displayed an inhibition in vivo at 10 mg/kg in assay [2] of 55%. The inhibition at 1 µM at NA transporter was found to be 49%. Moreover, the “Diltiazem Binding at 10 μM” value in assay [3] was determined as 88%.
Regarding `CN(C)C(c1ccccc1Cl)C1CCCCC1(O)CCc1ccc(F)cc1.Cl` (stereo not shown) [Example 69, 2-[(2-chlorophenyl)dimethylaminomethyl]-1-[2-(4-fluorophenyl)ethyl]cyclohexanol, hydrochloride], the “BTX Binding at 10 μM” value in assay [1] is on record as 96%. Moreover, the inhibition in vivo at 10 mg/kg in assay [2] is 45%. The inhibition at 1 µM on NA transporter was found to be 76%. For the same compound, the “Diltiazem Binding at 10 μM” value in assay [3] was found to be 93%.
As to `CN(C)C(c1cccs1)C1CCCCC1(O)Cc1cccc(C(F)(F)F)c1.Cl` (stereo not shown) [Example 70, 2-[dimethylaminothiophen-2-ylmethyl]-1-(3-trifluoromethylbenzyl)cyclohexanol, hydrochloride], in assay [1], the “BTX Binding at 10 μM” value was 93%. In addition, in assay [2], the “% Inhibition of the writhing reaction at 10 mg/kg intravenously” value worked out at 98%. Moreover, the “NA Uptake Inhibition at 1 μM” value on NA transporter is given as 74%. Further, the “Diltiazem Binding at 10 μM” value in assay [3] is on record as 91%.
For the compound `COC(=O)c1ccc(C2(O)CCCCC2C(c2ccccc2)N(C)C)cc1.Cl` (stereo not shown) [Example 71, Methyl-4-[2-(dimethylaminophenylmethyl)-1-hydroxycyclohexyl]benzoate, hydrochloride], the “BTX Binding at 10 μM” value in assay [1] was found to be 81%. Also, in assay [2], the inhibition in vivo at 10 mg/kg stood at 55%. For the same compound, the inhibition at 1 µM at NA transporter came out at 88%. Further, in assay [3], the “Diltiazem Binding at 10 μM” value is given as 74%.
